Broadly, the pIC50 is the negative decadic logarithm of the IC50, by convention in mol/L.

The assay has as its system HIV-1 (HIVIIIB) replication in MT2 cell line. As to the kind of experiment: HIV-1 replication in MT2 cell line with and without 30% human serum (viral RT activity in supernatant). Particulars: Human immunodeficiency virus 1, MT2 cells, average IC50 if tested more than once. It counts as cell-based. The procedure:
HIV-1 Replication in MT2 cell line with and without 30% human serum: The cells are infected at a Multiciplicity of Infection (MOI) of 0.5 for 3 h and then washed twice with complete media to remove residual virus. Cells are then resuspended at 0.5×10^6/ml in complete medium (RPMI, 10% FBS, 1% sodium pyruvate), and seeded into 96-well plates (6.25×10^4/well). The cells are cultured in the presence or absence of various concentrations of test compounds in serial dilutions for 3 days at 37° C. The test compounds are serially diluted in complete medium supplemented or not with 30% human serum. After 3 days, 100 μL of cultured medium with cells are replaced with 120 μL of freshly diluted test compounds in complete medium containing or not 30% Human serum. The level of HIV-1 replication is determined at days 5 after infection by the presence of viral RT activity in harvested supernatant fluid. The IC50 and IC90 values for the virus replication are determined by using GRAPHPAD PRISM software.
The IC50 of the compounds tested in accordance with the HIV replication activity assay MT2 (HIVIIIB) are represented in Table 1.

The mark [1] stands for this setting: with 30% human serum, read-out: MT2 (HIVIIIB) with HS 30% IC50 range.
Setting [2] is: without human serum, read-out: MT2 (HIVIIIB) IC50 range.

The structures appear in SMILES notation. pIC50: −log10 of the molar value. Read-outs that look alike come from different tables or passages of the source.

With `CC(C)C1=C2C3CCC4[C@@]5(C)CC[C@H](OC(=O)CC(C)(C)C(=O)O)C(C)(C)C5CC[C@@]4(C)[C@]3(C)CC[C@@]2(NC(=O)N[C@@H](C)C(F)(F)F)CC1=O` (stereo partly drawn) [17-50, 3β-O-(3′,3′-Dimethylsuccinyl)-17β-[N′-((S)-2,2,2-trifluoro-1-methyl-ethyl)-ureido]-21-oxolup-18-ene], the pIC50 under setting [1] is more than 6.70.
Take `CC(C)C1=C2C3CCC4[C@@]5(C)CC[C@H](OC(=O)CC(C)(C)C(=O)O)C(C)(C)C5CC[C@@]4(C)[C@]3(C)CC[C@@]2(NC(=O)OCC2CCN(C)C2)CC1=O` (stereo partly drawn) [20-21, 3β-O-(3′,3′-Dimethylsuccinyl)-17β-(1-methylpyrrolidine-3-methoxycarbonylamino)-21-oxolup-18-ene]: under setting [1], the pIC50 was more than 6.70.
`CC(C)C1=C2C3CCC4[C@@]5(C)CC[C@H](OC(=O)CC(C)(C)C(=O)O)C(C)(C)C5CC[C@@]4(C)[C@]3(C)CC[C@@]2(NC(=O)N2CCC(N)CC2)CC1=O` (stereo partly drawn) [17-24, 3β-O-(3′,3′-Dimethylsuccinyl)-17β-[(4-amino-piperidine-1-carbonyl)-amino]-21-oxolup-18-ene]: under setting [1], the pIC50 is 6.00 to 6.70.
As for `Cc1nc(C(=O)N[C@@]23CC[C@]4(C)C(CCC5[C@@]6(C)CC[C@H](OC(=O)CC(C)(C)C(=O)O)C(C)(C)C6CC[C@]54C)C2=C(C(C)C)C(=O)C3)co1` (stereo partly drawn) [19-76, 3β-O-(3′,3′-Dimethylsuccinyl)-17β-(2-methyl-1,3-oxazole-4-amido)-21-oxolup-18-ene], the pIC50 under setting [1] is more than 6.70.
For the molecule `CC(C)C1=C2[C@H]3CC[C@@H]4[C@@]5(C)CC[C@H](OC(=O)CC(C)(C)C(=O)O)C(C)(C)[C@@H]5CC[C@@]4(C)[C@]3(C)CC[C@@]2(NC(=O)NCc2ccnn2C)CC1=O` [17-76, 3β-O-(3′,3′-Dimethylsuccinyl)-17β-[N′-(2-methyl-2H-pyrazol-3-yl-methyl)-ureido]-21-oxolup-18-ene], the pIC50 under setting [1] is more than 6.70.
For the molecule `CC(C)C1=C2[C@H]3CC[C@@H]4[C@@]5(C)CC[C@H](OC(=O)CC(C)(C)C(=O)O)C(C)(C)[C@@H]5CC[C@@]4(C)[C@]3(C)CC[C@@]2(NC(=O)CC(C)(C)C(=O)O)CC1=O` [19-3, 3β-O,17β-N-bis(3′,3′-dimethylsuccinyl)-21-oxolup-18-ene], the pIC50 under setting [2] was more than 6.70.
Take `CC(C)C1=C2C3CCC4[C@@]5(C)CC[C@H](OC(=O)CC(C)(C)C(=O)O)C(C)(C)C5CC[C@@]4(C)[C@]3(C)CC[C@@]2(NC(=O)NCc2ccsc2)CC1=O` (stereo partly drawn) [17-75, 3β-O-(3′,3′-Dimethylsuccinyl)-17β-[N′-(thiophen-3-ylmethyl)-ureido]-21-oxolup-18-ene]: the pIC50 under setting [1] was more than 6.70.
Still for that read-out and setting: as for `CC(C)C1=C2[C@H]3CC[C@@H]4[C@@]5(C)CC[C@H](OC(=O)CC(C)(C)C(=O)O)C(C)(C)[C@@H]5CC[C@@]4(C)[C@]3(C)CC[C@@]2(NC(=O)[C@H]2CCCN2C)CC1=O` [19-55], the figure is more than 6.70.
In the case of `CC(C)C1=C2C3CCC4[C@@]5(C)CC[C@H](OC(=O)CC(C)(C)C(=O)O)C(C)(C)C5CC[C@@]4(C)[C@]3(C)CC[C@@]2(NC(=O)C2CCCCC2)CC1=O` (stereo partly drawn) [19-33, 3β-O-(3′,3′-Dimethylsuccinyl)-17β-cyclohexylamido-21-oxolup-18-ene], the pIC50 under setting [1] is more than 6.70 and the pIC50 under setting [2] is more than 6.70.
As for `CC(C)C1=C2C3CCC4[C@@]5(C)CC[C@H](OC(=O)CC(C)(C)C(=O)O)C(C)(C)C5CC[C@@]4(C)[C@]3(C)CC[C@@]2(NC(=O)[C@@H]2CCCN2C(=O)OC(C)(C)C)CC1=O` (stereo partly drawn) [19-57], under setting [1], the pIC50 was more than 6.70.
`COC(=O)N[C@@]12CC[C@]3(C)[C@H](CC[C@@H]4[C@@]5(C)CC[C@H](OC(=O)CC(C)(C)C(=O)O)C(C)(C)[C@@H]5CC[C@]43C)C1=C(C(C)C)C(=O)C2` [20-1, 3β-O-(3′,3′-Dimethylsuccinyl)-17β-nnethoxycarbonylamino-21-oxolup-18-ene]: the pIC50 is more than 6.70 under setting [1] and more than 6.70 under setting [2].
For `Cc1nnc(NC(=O)N[C@@]23CC[C@]4(C)C(CCC5[C@@]6(C)CC[C@H](OC(=O)CC(C)(C)C(=O)O)C(C)(C)C6CC[C@]54C)C2=C(C(C)C)C(=O)C3)o1` (stereo partly drawn) [17-19, 3β-O-(3′,3′-Dimethylsuccinyl)-17β-(N′-5-methyl-[1,3,4]oxadiazol-2-yl-ureido)-21-oxolup-18-ene], the pIC50 under setting [1] is more than 6.70.
Consider `CC(C)C1=C2[C@H]3CC[C@@H]4[C@@]5(C)CC[C@H](OC(=O)CC(C)(C)C(=O)O)C(C)(C)[C@@H]5CC[C@@]4(C)[C@]3(C)CC[C@@]2(NC(=O)c2cnccc2O)CC1=O` [19-50, 3β-O-(3′,3′-Dimethylsuccinyl)-17β-(4-hydroxypyridine-3-yl)amido-21-oxolup-18-ene], for which, under setting [1], the pIC50 is more than 6.70.
On to `CC(C)C1=C2C3CCC4[C@@]5(C)CC[C@H](OC(=O)CC(C)(C)C(=O)O)C(C)(C)C5CC[C@@]4(C)[C@]3(C)CC[C@@]2(NC(=O)NCC2CCC(F)(F)CC2)CC1=O` (stereo partly drawn) [17-60, 3β-O-(3′,3′-Dimethylsuccinyl)-17β-[N′-(4,4-difluoro-cyclohexyl-methyl)ureido]-21-oxolup-18-ene], for which the pIC50 under setting [1] was more than 6.70.
For `CC(C)C1=C2[C@H]3CC[C@@H]4[C@@]5(C)CC[C@H](OC(=O)CC(C)(C)C(=O)O)C(C)(C)[C@@H]5CC[C@@]4(C)[C@]3(C)CC[C@@]2(NC(=O)NCc2nccn2C)CC1=O` [17-73, 3β-O-(3′,3′-Dimethylsuccinyl)-17β-[N′-(1-methyl-1H-imidazol-2-yl-methyl)-ureido]-21-oxolup-18-ene], under setting [1], the pIC50 was more than 6.70.
As to `CC(C)C1=C2C3CCC4[C@@]5(C)CC[C@H](OC(=O)CC(C)(C)C(=O)O)C(C)(C)C5CC[C@@]4(C)[C@]3(C)CC[C@@]2(NC(=O)CN2CCC2)CC1=O` (stereo partly drawn) [19-73, 3β-O-(3′,3′-Dimethylsuccinyl)-17β-(1-azetidin-acetamido)-21-oxolup-18-ene], the pIC50 under setting [1] was more than 6.70.
Take `CC(C)C1=C2C3CCC4[C@@]5(C)CC[C@H](OC(=O)CC(C)(C)C(=O)O)C(C)(C)C5CC[C@@]4(C)[C@]3(C)CC[C@@]2(NC(=O)[C@H]2CCCN2C(=O)OC(C)(C)C)CC1=O` (stereo partly drawn) [19-58]: the pIC50 under setting [1] is more than 6.70.
With `CC(C)C1=C2C3CCC4[C@@]5(C)CC[C@H](OC(=O)CC(C)(C)C(=O)O)C(C)(C)C5CC[C@@]4(C)[C@]3(C)CC[C@@]2(NC(=O)[C@@H]2CCCN2C(C)C)CC1=O` (stereo partly drawn) [19-56], the pIC50 under setting [1] was more than 6.70.
Turning to `CC(C)C1=C2C3CCC4[C@@]5(C)CC[C@H](OC(=O)CC(C)(C)C(=O)O)C(C)(C)C5CC[C@@]4(C)[C@]3(C)CC[C@@]2(NC(=O)Cn2ccnc2)CC1=O` (stereo partly drawn) [19-60, 3β-O-(3′,3′-Dimethylsuccinyl)-17β-(1-imidazole-acetamido)-21-oxolup-18-ene], under setting [1], the negative-log IC50 (pIC50) was more than 6.70.
Turning to `CC(C)C1=C2[C@H]3CC[C@@H]4[C@@]5(C)CC[C@H](OC(=O)CC(C)(C)C(=O)O)C(C)(C)[C@@H]5CC[C@@]4(C)[C@]3(C)CC[C@@]2(NC(=O)c2cccnc2)CC1=O` [19-8, 3β-O-(3′,3′-Dimethylsuccinyl)-17β-(pyridin-3-yl)amido-21-oxolup-18-ene], the pIC50 reads like this: under setting [1], more than 6.70; under setting [2], more than 6.70.
With `CC(C)C1=C2C3CCC4[C@@]5(C)CC[C@H](OC(=O)CC(C)(C)C(=O)O)C(C)(C)C5CC[C@@]4(C)[C@]3(C)CC[C@@]2(NC(=O)c2nnc(C3CC3)o2)CC1=O` (stereo partly drawn) [19-62, 3β-O-(3′,3′-Dimethylsuccinyl)-17β-(5-cyclopropyl-[1,3,4]oxadiazole-2-amido)-21-oxolup-18-ene], the pIC50 under setting [1] is more than 6.70.

(Values after patent US8269026B2, “Lupane derivatives useful for treating HIV” (priority 2008, dated 2012).)
